# Assay results: US20230255970A1, “COMPOSITIONS AND METHODS FOR TREATING PROLIFERATIVE DISEASES” (The Broad Institute, Inc., priority 2020, published 2023)
# Tests used:
# PPARG = PPARG reporter gene assay (FABP4-NanoLuc, RT112/84 bladder cancer cell line); assay type: cell-based; conditions: absence or presence of Rosiglitazone
# Protocol: These NanoLuc gene cloned RT112/84 cells were plated in 384-well plates at ˜10,000 cells/well. Cells were dosed with indicated compounds in the absence or presence of EC50 of PPARG agonist, rosiglitazone, using an HP D300 digital dispenser. The following day nuclei were counted for normalization (IncuCyte S3, Essen Bioscience) and the reporter activity was evaluated using the NanoGlo Luciferase Assay System (Promega). Normalized data is reported as NanoGlo arbitrary light units divided by cell number. PPARG agonist, rosiglitazone, and inhibitor, T0070907, were obtained from Tocris and included as controls.
# p38a (MAPK14) = biological target: T1, p38a (MAPK14) (Homo sapiens, UniProt Q16539); test: Single-cell p38a activity reporter assay (RPE1-p38 KTR); assay type: cell-based; conditions: 1 μM, confirmed at 10 μM; 48 hours; RPE1 cells
# T1 construct: tested for their influence on p38a activity using the RPE1-p38 kinase translocation reporter (KTR) line; endogenous in cells; host or cells: RPE1-p38KTR cells
# T1 sequence (Q16539 whole entry): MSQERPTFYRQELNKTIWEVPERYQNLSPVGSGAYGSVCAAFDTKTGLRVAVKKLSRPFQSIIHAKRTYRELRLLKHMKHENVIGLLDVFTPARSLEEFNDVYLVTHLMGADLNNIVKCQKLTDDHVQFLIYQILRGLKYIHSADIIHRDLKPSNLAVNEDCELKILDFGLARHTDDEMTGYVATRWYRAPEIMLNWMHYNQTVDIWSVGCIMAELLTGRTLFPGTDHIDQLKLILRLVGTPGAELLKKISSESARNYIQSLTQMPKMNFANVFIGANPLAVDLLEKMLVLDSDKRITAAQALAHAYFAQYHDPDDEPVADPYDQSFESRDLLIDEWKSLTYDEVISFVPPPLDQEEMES
# Protocol: Cell Painting profiles for two wild-type variants of p38a (MAPK14) were averaged to create a p38a Cell Painting profile. 20 compounds whose Cell Painting profile correlated positively or negatively to that of p38a overexpression were selected in addition to 14 “non-correlated compounds” defined as having an absolute value of correlation of less than 0.2 as negative/neutral controls. The compounds were tested for their influence on p38a activity using the RPE1-p38 kinase translocation reporter (KTR) line that was previously generated. This cell line has been tested and confirmed to be negative for mycoplasma contamination, but not necessarily authenticated. P38 activity is measured by phosphorylation of its substrate, MEF2C, which is preferentially phosphorylated by p38 α, while p380 and p386 contribute less. RPE1-p38KTR cells were cultured in DMEM/F12 medium supplemented with 10% Fetal Bovine Serum at 37C in a humidified atmosphere with 5% CO2. 1000 cells were plated in 96-well plates and treated with 1p M or 10 μM of each compound (n=4 per concentration per compound, no replicates) for 48 hours. Only the middle 60 wells were used to prevent potential confounds from the edge effect. Cells were then fixed in 4% paraformaldehyde for 10 min, followed by permeabilization in cold methanol at −20C for 5 min. Cells were stained with 0.4 μg/mL Alexa Fluor 647 carboxylic acid, succinimidyl ester for 2 hr at RT, followed by 1 μg/mL DAPI for 10 min at RT to facilitate the segmentation of individual cells. p38a activity in single cells was calculated using the ratio of the median intensity of the p38-KTR in a 5-pixel-wide cytoplasmic ring around the nucleus to the median intensity of the p38-KTR in the nucleus. p38a activity measurements were normalized to DMSO conditions within the same plate. The Student's t-test Kolomogorov-Smirnov (KS) test was used to assess the score and significance of the single cell distributions of p38a activity for each compound relative to control. […] When reporting hits from this assay, KS test and t-test p-values were adjusted to control the false discovery rate using the Benjamini-Hochberg method, using the p.adjust method=‘BH” in R.
# rat cortical neurons = test: TMRE staining (mitochondrial membrane potential) in rat cortical neurons; assay type: cell-based; conditions: 10 μM
# Protocol: High content mitochondrial motility screen: Mitochondrial motility was measured as described in Shlevkov, E. et al., Cell Rep. […] Briefly, we plated E18 rat cortical neurons in the middle 60 wells of 96 well plates (Greiner)—40,000 cells per well in 150 μl enriched Neurobasal media. Neurons were transfected with mito-DsRed at DIV7 using Lipofectamine2000 (Life Technologies). […] At DIV9, test compounds were added into wells to achieve a final concentration of 10 μM each (4 wells per compound), as well at 10 μM calcimycin for neg. control, and DMSO only for mock treatment. Following a 1-2 hour incubation, plates were imaged on a ArrayScan XTI (Thermo Fisher). Mitochondrial motility data was extrapolated from imaging data using a MATLAB and CellProfiler based computational pipeline. […] The experiment was repeated twice in different weeks. In the second week, TMRE was added to all wells after imaging was completed (20 min, then 2 washes) and imaged to measure mitochondrial membrane potential in order to determine mitochondrial and cell health.
# [1] = test system: YAP1 overexpression in U2OS cells; test: Cell Painting morphological profile matching to YAP1/TAZ overexpression signature; assay type: cell-based, human; conditions: Pearson correlation of Cell Painting signatures, U2OS cells
# Excerpt: (§1) Of these, analysis of the 220 constructs that were most closely representative of the annotated full-length transcripts was prioritized. […] Not all genes are likely to impact cellular morphology given the limitation of the experiment; using a single cell line at a single time point under a single set of conditions and stained with six fluorescent labels.
# FIG. 2 provides an example characterization of matching the morphological signature of a gene query to the signature(s) of compounds in a library. Connections which show both positive and negative large correlations are considered as matches.
# (§2) This standardization was done plate wise, based on the mean and standard deviation of the controls at profile level for the compound dataset. […] The signatures were then obtained by averaging the replicate profiles feature-wise. Pearson correlation was used on the aligned signatures of a gene and compound to score their connection.
# [2] = test system: TRAF2 overexpression in U2OS cells; test: Cell Painting morphological profile matching to TRAF2 overexpression; assay type: cell-based, human; conditions: Pearson correlation of Cell Painting signatures, U2OS cells
# Excerpt: as §1, §2
# U2OS cells = test: Cell count in U2OS Cell Painting images; assay type: cell-based, human; conditions: U2OS Cell Painting
# Excerpt: as §1, §2
structure (smiles),measurement,setting,value
"CCc1cc(-c2n[nH]c(C)c2-c2ccc3c(c2)OCCO3)c(O)cc1O [BRD-K65503129, 4-[4-(2,3-dihydro-1,4-benzodioxin-6-yl)-5-methyl-1H-pyrazol-3-yl]-6-ethylbenzene-1,3-diol]",PPARG reporter activity,PPARG; listed as B09,active in the PPARG reporter assay
same,PPARG reporter activity,PPARG; listed as CCT018159,inhibited reporter activity
"CCCCNc1cc(C(=O)O)cc(S(N)(=O)=O)c1Oc1ccccc1 [BRD-K38197229, 3-(butylamino)-4-phenoxy-5-sulfamoylbenzoic acid]",p38a activity,p38a (MAPK14),potential inhibitors
"Nc1nc(Nc2ccccc2)nc2c1ncn2C1OC(CO)C(O)C1O (stereo not shown) [BRD-A64933752, 2-(6-amino-2-anilinopurin-9-yl)-5-(hydroxymethyl)oxolane-3,4-diol]",p38a activity,p38a (MAPK14),potential inhibitors
"CC(C)(C)n1nc(-c2ccc(Cl)cc2)c2c(N)ncnc21 [BRD-K95785537, 1-(tert-butyl)-3-(4-chlorophenyl)-1H-pyrazolo[3,4-d]pyrimidin-4-amine]",TMRE staining (mitochondrial membrane potential),rat cortical neurons,normal levels of TMRE staining
"COC1(C[S@@+]([O-])c2ccccc2)CCN(CCc2c[nH]c3ccc(F)cc23)CC1 [BRD-K52394958, 5-Fluoro-3-[2-[4-methoxy-4-[[(R)-phenylsulfinyl]methyl]piperidin-1-yl]ethyl]-1H-indole]",p38a activity,p38a (MAPK14),identified via an alternative statistical test
"CCCCCCCCCCCCCC(=O)O[C@@H]1[C@@H](C)[C@@]2(O)[C@@H](C=C(CO)C[C@]3(O)C(=O)C(C)=C[C@@H]23)[C@@H]2C(C)(C)[C@]12OC(C)=O [BRD-K68552125, 12-O-Tetradecanoylphorbol-13-acetate]",PPARG reporter activity,PPARG; listed as A06,active in the PPARG reporter assay
same,PPARG reporter activity,PPARG; listed as Phorbol 12-myristate 13-acetate,inhibited reporter activity
same,TMRE staining (mitochondrial membrane potential),rat cortical neurons,normal levels of TMRE staining
"Oc1ccc(-c2nc(-c3ccc(F)cc3)c(-c3ccncc3)[nH]2)cc1 [SB202190, 4-(4-(4-fluorophenyl)-5-(pyridin-4-yl)-1H-imidazol-2-yl)phenol, reference compound]",p38a activity,p38a (MAPK14),suppressed p38a activity
"Cc1ccc(-c2nn(C(C)(C)C)c3ncnc(N)c23)cc1 [PP1, reference compound]",PPARG reporter activity,PPARG,reporter activation
"CC(C)(C)n1nc(-c2cccc3ccccc23)c2c(N)ncnc21 [BRD-K29542628, 1-(tert-Butyl)-3-(naphthalen-1-yl)-1H-pyrazolo[3,4-d]pyrimidin-4-amine]",PPARG reporter activity,PPARG,active in the PPARG reporter assay
same,TMRE staining (mitochondrial membrane potential),rat cortical neurons,normal levels of TMRE staining
"CCCNC(=O)N1[C@@H]2c3ccc(-c4ccccc4OC)c(=O)n3C[C@H]1[C@H](CO)[C@H]2C(=O)NCC [BRD-K39839146, (1S,9R,10R,11R)-11-N-ethyl-10-(hydroxymethyl)-5-(2-methoxyphenyl)-6-oxo-12-N-propyl-7,12-diazatricyclo[7.2.1.02,7]dodeca-2,4-diene-11,12-dicarboxamide]",Corr. to YAP1 cluster,[1],0.4835
same,Corr. to TRAF2,[2],−0.4284
same,Avg. Cell Count z-score,U2OS cells,0.2185
"O=c1c(-c2ccc(O)cc2)coc2cc(O)ccc12 [BRD-K42095107, 7-hydroxy-3-(4-hydroxyphenyl)chromen-4-one]",Corr. to YAP1 cluster,[1],0.4583
same,Corr. to TRAF2,[2],−0.372
same,Avg. Cell Count z-score,U2OS cells,−0.8813
"CO[C@@H]1CN(C)C(=O)c2ccc(NC(=O)c3ccccc3F)cc2OC[C@H](C)N(CC2CC2)C[C@@H]1C [BRD-K42367391, N-[(5S,6S,9S)-8-(cyclopropylmethyl)-5-methoxy-3,6,9-trimethyl-2-oxo-11-oxa-3,8-diazabicyclo[10.4.0]hexadeca-1(12),13,15-trien-14-yl]-2-fluorobenzamide]",Corr. to YAP1 cluster,[1],0.4887
same,Corr. to TRAF2,[2],−0.2728
same,Avg. Cell Count z-score,U2OS cells,−0.9374
